Source: BindingDB's records for doi:10.1016/j.bmcl.2020.127669 (Janssen Research & Development, 2021)

Molecular target: 5-hydroxytryptamine receptor 2B (Homo sapiens, UniProt P41595)
Test: Displacement of […] from human 5-HT2B receptor by competitive radioligand binding assay

5-hydroxytryptamine receptor 2B, sequence (P41595 whole entry): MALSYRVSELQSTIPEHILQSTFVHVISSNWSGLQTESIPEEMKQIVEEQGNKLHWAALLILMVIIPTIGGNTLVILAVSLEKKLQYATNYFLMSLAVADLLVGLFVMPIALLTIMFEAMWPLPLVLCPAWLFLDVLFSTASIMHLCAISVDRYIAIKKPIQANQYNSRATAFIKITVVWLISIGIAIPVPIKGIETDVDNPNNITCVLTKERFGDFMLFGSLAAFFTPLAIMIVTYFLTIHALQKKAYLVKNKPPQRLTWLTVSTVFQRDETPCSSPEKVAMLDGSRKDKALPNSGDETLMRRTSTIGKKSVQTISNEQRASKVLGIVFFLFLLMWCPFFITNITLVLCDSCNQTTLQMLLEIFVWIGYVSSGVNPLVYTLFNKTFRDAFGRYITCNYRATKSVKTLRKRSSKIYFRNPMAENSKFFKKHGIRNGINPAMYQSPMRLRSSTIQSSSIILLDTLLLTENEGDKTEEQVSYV

SMILES: CC(C)n1nc2c(c1-c1ccc(F)cc1)CCNCC2
- Ki: 25 nM
